Experimental data from ChEMBL document CHEMBL1131986, “Structure-activity relationships of biphenyl tetrazoles as metallo-beta-lactamase inhibitors” (Bioorg Med Chem Lett, 1999).

Assays:
Dipeptidase 1 = molecular target: T1, Dipeptidase 1 (Sus scrofa, UniProt P22412); experiment: In vitro apparent inhibition constant of porcine renal Dehydropeptidase-1.; conditions: read-out: Ki app
T1 sequence (P22412 whole entry): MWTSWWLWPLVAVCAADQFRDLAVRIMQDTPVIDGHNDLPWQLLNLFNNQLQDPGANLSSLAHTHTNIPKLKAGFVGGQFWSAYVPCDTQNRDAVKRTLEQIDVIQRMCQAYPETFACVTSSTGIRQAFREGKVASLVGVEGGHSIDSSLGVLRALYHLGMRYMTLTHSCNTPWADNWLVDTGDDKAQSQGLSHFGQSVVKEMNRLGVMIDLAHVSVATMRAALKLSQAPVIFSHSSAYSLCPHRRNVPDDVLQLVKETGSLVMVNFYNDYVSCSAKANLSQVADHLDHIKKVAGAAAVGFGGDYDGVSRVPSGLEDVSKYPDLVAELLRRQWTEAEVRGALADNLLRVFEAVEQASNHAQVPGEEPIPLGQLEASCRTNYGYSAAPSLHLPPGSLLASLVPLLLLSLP

Beta-lactamase = Beta-lactamase (Pseudomonas aeruginosa, UniProt Q79MP6); experiment: Inhibition of metallo-beta-lactamase (MBL) from Pseudomonas aeruginosa mediated by the plasmid-borne IMP-1 enzyme.
[1] = molecular target: Metallo-beta-lactamase type 2 (Bacteroides fragilis, UniProt P25910); experiment: Inhibition of metallo-beta-lactamase (MBL) from Bacteroides fragilis.
Chain of Metallo-beta-lactamase type 2 (P25910 whole entry): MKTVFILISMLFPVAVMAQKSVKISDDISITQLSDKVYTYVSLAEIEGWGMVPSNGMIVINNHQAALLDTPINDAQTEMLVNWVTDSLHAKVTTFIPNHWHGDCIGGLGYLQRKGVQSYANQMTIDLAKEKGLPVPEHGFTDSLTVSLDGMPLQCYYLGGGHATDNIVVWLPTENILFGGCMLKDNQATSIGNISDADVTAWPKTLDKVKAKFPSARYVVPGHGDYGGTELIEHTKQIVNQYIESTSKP

Chain of Beta-lactamase (Q79MP6 whole entry): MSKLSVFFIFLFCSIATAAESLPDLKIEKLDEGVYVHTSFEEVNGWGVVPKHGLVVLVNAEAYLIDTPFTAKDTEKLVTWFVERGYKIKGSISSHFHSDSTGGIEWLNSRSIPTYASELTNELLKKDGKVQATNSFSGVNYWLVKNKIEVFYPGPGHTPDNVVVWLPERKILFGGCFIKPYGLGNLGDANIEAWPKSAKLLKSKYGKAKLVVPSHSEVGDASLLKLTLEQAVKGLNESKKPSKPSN

Structure (SMILES) | Ki (Dipeptidase 1) [µM] | IC50 (Beta-lactamase) [µM] | IC50 [1] [µM]
CCCCc1nn(-c2ccc(Cl)cc2)c(C(=O)O)c1Cc1ccc(-c2ccccc2-c2nn[nH]n2)cc1 | 430 | > 200 | 230
CCCCc1nn(-c2cccc(Cl)c2)c(C(=O)O)c1Cc1ccc(-c2ccccc2-c2nn[nH]n2)cc1 | 425 | > 200 | 190
CCCCc1nn(-c2ccccc2-c2ccccc2)c(C(=O)OCC)c1Cc1ccc(-c2ccccc2-c2nn[nH]n2)cc1 | – | 150 | > 200
CCCCc1nn(-c2c(Cl)cccc2Cl)c(C(=O)O)c1Cc1ccc(-c2ccccc2-c2nnn[nH]2)cc1 | 500 | > 200 | 100
CCCCc1nn(-c2ccccc2)c(C(=O)OCC)c1Cc1ccc(-c2ccccc2-c2nnn[nH]2)cc1 | 250 | > 200 | 100
CCCCc1nn(-c2ccccc2C)c(C(=O)O)c1Cc1ccc(-c2ccccc2-c2nn[nH]n2)cc1 | 470 | > 200 | 80
CCCCc1nn(-c2ccc(Cl)cc2Cl)c(C(=O)O)c1Cc1ccc(-c2ccccc2-c2nn[nH]n2)cc1 | 400 | > 200 | 80
CCCCc1nn(-c2ccc(Cl)cc2Cl)c(C(=O)OCC)c1Cc1ccc(-c2ccccc2-c2nnn[nH]2)cc1 | 480 | 66 | 100
CCCCc1nn(-c2cccc(Cl)c2)c(C(=O)OCC)c1Cc1ccc(-c2ccccc2-c2nn[nH]n2)cc1 | 450 | 76 | 170
CCCCc1nn(-c2ccccc2C)c(C(=O)OCC)c1Cc1ccc(-c2ccccc2-c2nn[nH]n2)cc1 | – | > 200 | 70
CCCCc1nn(-c2cc(Cl)ccc2Cl)c(C(=O)OCC)c1Cc1ccc(-c2ccccc2-c2nn[nH]n2)cc1 | 80 | 60 | 100
CCCCc1nn(-c2ccccc2[N+](=O)[O-])c(C(=O)OCC)c1Cc1ccc(-c2ccccc2-c2nnn[nH]2)cc1 | – | > 200 | 18
CCCCc1nn(-c2ccccc2Cl)c(C(=O)OCC)c1Cc1ccc(-c2ccccc2-c2nnn[nH]2)cc1 | 250 | 200 | 170
CCCCc1nn(-c2ccccc2Cl)c(C(=O)O)c1Cc1ccc(-c2ccccc2-c2nn[nH]n2)cc1 | 350 | > 200 | 30
CCCCc1nn(-c2ccccc2C(F)(F)F)c(C(=O)O)c1Cc1ccc(-c2ccccc2-c2nnn[nH]2)cc1 | 380 | > 200 | 40

The remaining lines, values ahead:

Ki (Dipeptidase 1) [µM] | IC50 (Beta-lactamase) [µM] | IC50 [1] [µM] | Structure (SMILES)
380 | 70 | 290 | CCCCc1nn(-c2ccc(Cl)cc2)c(C(=O)OCC)c1Cc1ccc(-c2ccccc2-c2nn[nH]n2)cc1
590 | > 200 | 200 | CCCCc1nn(-c2ccccc2)c(C(=O)O)c1Cc1ccc(-c2ccccc2-c2nn[nH]n2)cc1
800 | > 200 | 33 | CCCCc1nn(-c2c(Cl)cc(Cl)cc2Cl)c(C(=O)O)c1Cc1ccc(-c2ccccc2-c2nnn[nH]2)cc1
– | > 200 | 22 | CCCCc1nn(-c2ccccc2C(F)(F)F)c(C(=O)OCC)c1Cc1ccc(-c2ccccc2-c2nnn[nH]2)cc1
380 | > 200 | 50 | CCCCc1nn(-c2cc(Cl)ccc2Cl)c(C(=O)O)c1Cc1ccc(-c2ccccc2-c2nnn[nH]2)cc1
310 | > 200 | 37 | CCCCc1nn(-c2cccc(Cl)c2Cl)c(C(=O)O)c1Cc1ccc(-c2ccccc2-c2nnn[nH]2)cc1
450 | > 200 | 80 | CCCCc1nn(-c2c(Cl)cc(Cl)cc2Cl)c(C(=O)OCC)c1Cc1ccc(-c2ccccc2-c2nn[nH]n2)cc1
420 | 65 | 180 | CCCCc1nn(-c2ccccc2-c2ccccc2)c(C(=O)O)c1Cc1ccc(-c2ccccc2-c2nnn[nH]2)cc1
640 | > 200 | 120 | CCCCc1nn(-c2ccccc2[N+](=O)[O-])c(C(=O)O)c1Cc1ccc(-c2ccccc2-c2nnn[nH]2)cc1
170 | 175 | 100 | CCCCc1nn(-c2cccc(Cl)c2Cl)c(C(=O)OCC)c1Cc1ccc(-c2ccccc2-c2nnn[nH]2)cc1
